The text below walks through data of patent EP2689847A1, “Methods for catalytic alkylation of nucleic acids” (Universität Basel, priority 2012, dated 2014).

This series is described as follows: water solubility of α-diazocarbonyl substrates under the conditions of the oligonucleotide modification reaction. The class given is physicochemical. Particulars: aqueous reaction mixture, 100 mM MES buffer, pH 6.0, 50 mM α-diazocarbonyl compound. The text has this:
A number of a-diazocarbonyl substrates were screened as potential candidates for the target reaction of oligonucleotide modification (Table 4). […] Increasing the bulkiness of the ester moiety appeared to have a negative effect on the yields of modified oligonucleotide as for entry 2 the efficacy of modification was reduced twice in comparison to the methyl ester counterpart (entry 1) and with the compound from entry 7 only trace amounts of modified oligonucleotide were isolated.
General procedure for Rh2(OAc)4-catalyzed oligonucleotide modification using a-diazocarbonyl compounds. Typically […] reaction mixtures containing 5 mM oligonucleotide, […] Rh2(OAc)4 and 50 mM a-diazocarbonyl compound in 100 mM MES buffer, pH 6.0 were kept at 20 °C for 24-72 h. Analysis of the reaction products was carried out by micropreparative HPLC-separation of 5-ml aliquots of the reaction mixtures using method A. The collected peak fractions were further assessed by ESI-MS or MALDI TOF.
As to `C#CCN1CCN(CCOCCOCCOCCN2CCN(Cc3ccc(C(=[N+]=[N-])C(=O)OC)cc3)CC2)CC1` [Dz-2, Methyl2-diazo-2-(4-((4-(2-(2-(2-(2-(4-(prop-2-yn-1-yl)piperazin-1-yl)ethoxy)ethoxy)ethoxy)ethyl)piperazin-1-yl)methyl)phenyl)acetate], the “water solubility under the conditions of the analysis” value is “sufficiently water-soluble”.
Regarding `CCOC(=O)C(=[N+]=[N-])c1ccc(CN(C)C)cc1` [entry 2], the “water solubility under the conditions of the analysis” value was “sufficiently water-soluble”.
Next, `COC(=O)C(=[N+]=[N-])c1ccc(CN(C)C)cc1` [Dz-1, Methyl 2-diazo-2-(4-((dimethylamino)methyl)phenyl)acetate]: “sufficiently water-soluble”.
